The text below walks through data of ChEMBL document CHEMBL1201862, “PubChem BioAssay data set” (2004).

Each structure is given as a SMILES string. Calls of active or inactive are those of the source.

Assay [1] concerns the target Protein-tyrosine kinase 2-beta (Homo sapiens, UniProt Q14289).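 Note: potency of inhibitors of PYK2 kinase phosphorylation of poly-GT substrate.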
The target in assay [2] is T1, Estrogen receptor (Homo sapiens, UniProt P03372).
T1 sequence (P03372 whole entry): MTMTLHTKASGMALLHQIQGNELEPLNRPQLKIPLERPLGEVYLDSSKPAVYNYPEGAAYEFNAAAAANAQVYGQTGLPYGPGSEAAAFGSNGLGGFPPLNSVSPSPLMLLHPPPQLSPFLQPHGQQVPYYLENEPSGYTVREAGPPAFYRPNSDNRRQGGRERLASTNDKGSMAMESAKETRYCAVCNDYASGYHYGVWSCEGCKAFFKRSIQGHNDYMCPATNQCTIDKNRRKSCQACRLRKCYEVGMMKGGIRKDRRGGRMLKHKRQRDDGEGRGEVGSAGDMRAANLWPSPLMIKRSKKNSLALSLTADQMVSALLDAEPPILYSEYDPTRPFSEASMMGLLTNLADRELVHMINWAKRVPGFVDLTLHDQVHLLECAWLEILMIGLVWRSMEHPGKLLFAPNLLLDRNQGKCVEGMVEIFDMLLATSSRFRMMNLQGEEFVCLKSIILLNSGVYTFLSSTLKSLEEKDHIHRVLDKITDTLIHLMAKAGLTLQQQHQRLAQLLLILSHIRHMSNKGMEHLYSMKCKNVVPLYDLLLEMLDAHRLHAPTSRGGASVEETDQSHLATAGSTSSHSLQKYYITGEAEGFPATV
Nature of the assay: ERα coactivator recruitment enhancers – biochemical, TR-FRET, ERα LBD, dose response (AID 737). (In general: In TR-FRET formats the signal depends on donor and acceptor labels being close together.)

Assay [3] in a line: viability of HCT116 lacking mutant beta-catenin – cell-based, human colon tumor, dose response (AID 1045).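 Note: HCT116 colon tumor cells with beta catenin knocked out; cells exposed to compound for 60 hours.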 It is filed as functional.
Assay [4] is described as follows: NIH-3T3 fibroblast cytotoxicity, dose response, cytotoxicity control, cell-based, fluorescence, Alamar Blue, secondary assay (AID 2327).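 Note: NIH-3T3 mouse fibroblasts cultured with fluconazole at 8 µg/mL.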 The assay is classed as functional.
Assay [5] is described as follows: Vero E6 cell cytotoxicity, dose response, cytotoxicity control for non-replicating M. tuberculosis project, secondary assay (AID 492998). The assay is classed as functional, VeroE6. Conditions: Vero C1008.
Assay [6] is described as follows: viability loss of HPDE-C7K cells – cell-based, fluorescence, HTS, primary screen (AID 431). It is filed as functional. Conditions: Homo sapiens.
A short description of assay [7]: viability of PTEN-deleted HCT116 cells – cell-based, HCT116 PTEN knockout, dose response (AID 1047).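 Note: HCT116 colon tumor cells with PTEN knocked out; cells exposed to compound for 60 hours before readout; potency for loss of cell viability measured by luminescence.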 The assay is classed as functional.
Assay [8] concerns the target T2, Sphingosine 1-phosphate receptor 4 (Homo sapiens, UniProt O95977).
T2 sequence (O95977 whole entry): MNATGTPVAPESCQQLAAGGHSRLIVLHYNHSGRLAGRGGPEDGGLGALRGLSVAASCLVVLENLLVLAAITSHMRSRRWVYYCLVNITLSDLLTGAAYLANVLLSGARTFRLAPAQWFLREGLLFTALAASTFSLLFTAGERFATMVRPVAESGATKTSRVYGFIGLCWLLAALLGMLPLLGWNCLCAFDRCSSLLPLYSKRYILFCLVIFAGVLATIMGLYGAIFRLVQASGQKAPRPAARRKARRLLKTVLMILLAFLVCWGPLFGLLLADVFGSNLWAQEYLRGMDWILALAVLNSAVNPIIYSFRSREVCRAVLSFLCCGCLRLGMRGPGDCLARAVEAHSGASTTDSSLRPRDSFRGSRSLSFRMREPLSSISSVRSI
Nature of the assay: Late stage fluorescence dose response cell-based screening assay for antagonists of the Sphingosine 1-Phosphate Receptor 4 (S1P4). [Related pubchem assays: 1524 (Confirmation screen (S1P4 antagonists).), 1510 (Primary screen (S1P4 antagonists).), 1853 (Summary AID (S1P4 antagonists).), 1692 (Dose response screen (S1P4 antagonists).)]. The assay is classed as functional.

A short description of assay [9]: THP-1 cell cytotoxicity, dose response, cytotoxicity control for non-replicating M. tuberculosis project (AID 489025). The assay is classed as functional.
Assay [10] can be described thus: cells. The assay is classed as functional.
The target of assay [11] is T2, Sphingosine 1-phosphate receptor 4. The assay can be described thus: Fluorescence dose response cell-based high throughput screening assay for antagonists of the Sphingosine 1-Phosphate Receptor 4 (S1P4). [Related pubchem assays: 1524 (Confirmation in triplicates.), 1510 (Primary screen.)]. It is filed as functional.
Assay [12] is described as follows: HPDE-C7 pancreatic duct cell viability loss – fluorescence, HTS (AID 430). Conditions: Homo sapiens. The assay is classed as functional, cell-based.
Assay [13] concerns the target Sphingosine 1-phosphate receptor 1 (Homo sapiens, UniProt P21453). The assay is classed as functional.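 Note: Tango beta-arrestin reporter U2OS cells stimulated with S1P near its EC80; inhibitor potency meaning antagonism of receptor activation by the natural agonist.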
A short description of assay [14]: fluconazole-exposed Candida albicans growth modulators – fluorescence, retest, confirmation (AID 2467). The assay is classed as functional, cell-based.
Assay [15] addresses Lytic switch protein BZLF1 (Epstein-Barr virus (strain B95-8) (HHV-4) (Human herpesvirus 4), UniProt P03206). Nature of the assay: inhibition of BZLF1 ZTA DNA binding – biochemical, fluorescence polarization, Epstein-Barr virus, 1536-well, counter-screen for EBNA-1 inhibitor project, dose response (AID 2377).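 Note: fluorescence polarization of Cy5-labelled ZRE DNA probe bound by purified Zta.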 The arrangement: species or system human gammaherpesvirus 4. (In fluorescence polarisation assays a small probe gives low polarisation when free and higher when bound to something large.)

Assay [16] deals with Epstein-Barr nuclear antigen 1 (Epstein-Barr virus (strain B95-8) (HHV-4) (Human herpesvirus 4), UniProt P03211). Nature of the assay: inhibition of EBV nuclear antigen 1 DNA binding – biochemical, fluorescence polarization, 1536-well, dose response (AID 2381).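 Note: fluorescence polarization of a Cy5 DNA probe bound by EBNA-1 protein.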 Further details: species or system human gammaherpesvirus 4.
The target of assay [17] is T3, Probable nicotinate-nucleotide adenylyltransferase (Staphylococcus aureus (strain N315), UniProt P65502). The assay is classed as functional, Staphylococcus aureus subsp. aureus N315.
The target of assay [18] is Procathepsin L (Homo sapiens, UniProt P07711). The assay can be described thus: CTSL1 protease inhibition – biochemical, QFRET, 1536-well, counter-screen for M1/M17 aminopeptidase inhibitor project, dose response (AID 2214). For orientation: A counterscreen serves to expose hits that act by an unwanted route or on another target.
Assay [19] has as its target T3, Probable nicotinate-nucleotide adenylyltransferase. It is filed as functional, Staphylococcus aureus subsp. aureus N315. Conditions: read-out: IC50_Mean.
The target of assay [20] is T4, Leucine aminopeptidase (Plasmodium falciparum 3D7, UniProt Q8IL11).
T4 sequence (Q8IL11 whole entry): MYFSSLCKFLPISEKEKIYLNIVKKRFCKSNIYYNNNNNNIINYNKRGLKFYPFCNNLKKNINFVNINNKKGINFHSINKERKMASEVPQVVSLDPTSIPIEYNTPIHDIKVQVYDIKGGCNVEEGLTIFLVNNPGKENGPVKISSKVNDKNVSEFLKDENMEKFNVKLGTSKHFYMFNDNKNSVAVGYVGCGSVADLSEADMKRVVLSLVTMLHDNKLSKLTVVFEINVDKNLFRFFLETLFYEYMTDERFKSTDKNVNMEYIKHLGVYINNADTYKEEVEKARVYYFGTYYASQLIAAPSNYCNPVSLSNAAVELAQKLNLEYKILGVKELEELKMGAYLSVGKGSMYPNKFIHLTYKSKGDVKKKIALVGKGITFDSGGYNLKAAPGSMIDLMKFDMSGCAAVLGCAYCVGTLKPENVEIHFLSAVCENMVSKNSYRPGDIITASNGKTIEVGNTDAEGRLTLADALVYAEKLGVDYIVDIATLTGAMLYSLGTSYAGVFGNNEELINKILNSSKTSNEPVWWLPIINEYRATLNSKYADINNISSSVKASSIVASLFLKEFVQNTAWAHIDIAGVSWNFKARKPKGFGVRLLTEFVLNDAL
Nature of the assay: P. falciparum M17LAP inhibitors, primary screen, biochemical, fluorogenic H-Leu-NHMec substrate, 1536-well (AID 1619). The assay is classed as functional.

The target of assay [21] is Aspartyl aminopeptidase (Plasmodium falciparum 3D7, UniProt Q8I2J3). Nature of the assay: Counterscreen for inhibitors of M1 and M17 aminopeptidases: QFRET-based biochemical high throughput dose response assay for inhibitors of the Plasmodium falciparum M18 Aspartyl Aminopeptidase (PFM18AAP). [Related PubChem assays: 1619 (Screening assay (M17LAP inhibitors).), 1445 (Screening assay (M1AAP inhibitors).)].

Assay [22] concerns the target Vasopressin V1a receptor (Homo sapiens, UniProt P37288). The assay can be described thus: Fluorescence-based cell-based high throughput dose response screening assay for agonists of the vasopressin 1 receptor (V1R). The assay is classed as functional.
Assay [23] addresses Oxytocin receptor (Homo sapiens, UniProt P30559). Nature of the assay: Counterscreen for vasopressin 1 receptor (V1R) agonists: Fluorescence-based cell-based high throughput dose response assay for agonists of the Oxytocin Receptor (OXTR). [Related pubchem assays: 2435 (Primary screen (OXTR agonists in singlicate)), 434964 (Confirmation screen (V1R agonists in triplicate)), 434969 (Counterscreen (OXTR agonists in …. It is filed as functional.

In assay [24] the target is Troponin, cardiac muscle (Homo sapiens, UniProt P19429+P45379+P63316). Nature of the assay: Fluorescence-based biochemical high throughput dose response assay for activators of the calcium sensitivity of cardiac Regulated Thin Filaments (RTF). [Related pubchem assays (depositor defined):AID493008, AID493018, AID504382, AID504383]. It is filed as protein-complex assay.

The target of assay [25] is T5, Mannose-6-phosphate isomerase (Homo sapiens, UniProt P34949).
T5 sequence (P34949 whole entry): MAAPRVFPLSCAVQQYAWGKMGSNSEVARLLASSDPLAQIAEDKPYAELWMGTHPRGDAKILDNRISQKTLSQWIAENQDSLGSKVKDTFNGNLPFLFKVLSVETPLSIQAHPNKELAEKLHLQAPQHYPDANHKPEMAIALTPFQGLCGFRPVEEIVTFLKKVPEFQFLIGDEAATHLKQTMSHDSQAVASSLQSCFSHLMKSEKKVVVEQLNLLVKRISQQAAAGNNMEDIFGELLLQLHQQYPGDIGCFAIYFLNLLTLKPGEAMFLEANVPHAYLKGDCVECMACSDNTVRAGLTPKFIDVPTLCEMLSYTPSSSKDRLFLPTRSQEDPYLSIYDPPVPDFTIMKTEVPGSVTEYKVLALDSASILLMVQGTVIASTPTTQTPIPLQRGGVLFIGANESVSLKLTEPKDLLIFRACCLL
The assay can be described thus: MPI enzyme activity inhibition – biochemical, fluorescence intensity, coupled assay, primary screen (AID 1209).

In assay [26] the target is T6, Heat shock factor protein 1 (Mus musculus, UniProt P38532).
T6 sequence (P38532 whole entry): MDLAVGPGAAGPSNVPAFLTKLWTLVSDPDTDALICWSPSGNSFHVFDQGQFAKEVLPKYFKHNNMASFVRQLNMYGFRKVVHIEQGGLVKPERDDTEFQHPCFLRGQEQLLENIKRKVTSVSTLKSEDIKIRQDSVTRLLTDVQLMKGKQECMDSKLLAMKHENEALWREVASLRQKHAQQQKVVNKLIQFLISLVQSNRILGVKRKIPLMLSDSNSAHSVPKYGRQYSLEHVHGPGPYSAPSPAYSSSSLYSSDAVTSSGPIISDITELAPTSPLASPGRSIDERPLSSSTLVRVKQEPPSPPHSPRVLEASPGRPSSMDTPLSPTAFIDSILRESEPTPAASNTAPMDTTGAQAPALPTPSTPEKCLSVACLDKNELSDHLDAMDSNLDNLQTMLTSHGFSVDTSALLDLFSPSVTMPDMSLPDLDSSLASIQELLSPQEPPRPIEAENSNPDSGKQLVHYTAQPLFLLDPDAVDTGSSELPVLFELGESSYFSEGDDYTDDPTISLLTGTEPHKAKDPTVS
Nature of the assay: decrease of HSF1-responsive luciferase luminescence – cell-based, NIH3T3, dose retest, confirmation (AID 2382).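 Note: NIH3T3 fibroblasts with HSF1-driven luciferase reporter stressed by proteasome inhibitor MG132; luminescence from HSF1-driven luciferase expression after 8 hours of MG132 stress.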 It is filed as functional.

The target of assay [27] is NADPH oxidase 1 (Homo sapiens, UniProt Q9Y5S8). The assay is classed as functional, cell-based.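 Note: Cell-based assay with luminescence read-out, IC50 derived from inhibitor dose-response curves; intracellular ROS from endogenous NOX1 in intact HT29 colon cancer cells; potency of inhibitors that lower the ROS luminescence signal.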
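Throughout, for IC50 Mean: confirmatory dose-response retesting of NadD inhibitor hits first found in an ultra-high-throughput screen.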

T3 sequence (P65502 whole entry): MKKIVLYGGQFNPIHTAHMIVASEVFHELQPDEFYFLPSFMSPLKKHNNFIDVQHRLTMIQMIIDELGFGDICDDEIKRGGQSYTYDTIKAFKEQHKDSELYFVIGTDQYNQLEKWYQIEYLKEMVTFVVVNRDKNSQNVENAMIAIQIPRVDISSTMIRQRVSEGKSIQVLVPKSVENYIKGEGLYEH
Chain of Oxytocin receptor (P30559 whole entry): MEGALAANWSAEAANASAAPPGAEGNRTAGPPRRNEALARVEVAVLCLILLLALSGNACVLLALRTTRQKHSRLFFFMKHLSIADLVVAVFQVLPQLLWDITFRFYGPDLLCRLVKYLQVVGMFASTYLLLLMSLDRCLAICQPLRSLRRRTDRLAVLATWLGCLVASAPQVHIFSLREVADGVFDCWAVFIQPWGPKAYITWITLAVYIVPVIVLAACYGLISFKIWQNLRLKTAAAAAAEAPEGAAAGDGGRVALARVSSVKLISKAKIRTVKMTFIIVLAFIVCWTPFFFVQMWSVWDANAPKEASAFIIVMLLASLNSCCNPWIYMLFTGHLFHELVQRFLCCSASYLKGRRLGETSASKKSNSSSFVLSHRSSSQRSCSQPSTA
Chain of Procathepsin L (P07711 whole entry): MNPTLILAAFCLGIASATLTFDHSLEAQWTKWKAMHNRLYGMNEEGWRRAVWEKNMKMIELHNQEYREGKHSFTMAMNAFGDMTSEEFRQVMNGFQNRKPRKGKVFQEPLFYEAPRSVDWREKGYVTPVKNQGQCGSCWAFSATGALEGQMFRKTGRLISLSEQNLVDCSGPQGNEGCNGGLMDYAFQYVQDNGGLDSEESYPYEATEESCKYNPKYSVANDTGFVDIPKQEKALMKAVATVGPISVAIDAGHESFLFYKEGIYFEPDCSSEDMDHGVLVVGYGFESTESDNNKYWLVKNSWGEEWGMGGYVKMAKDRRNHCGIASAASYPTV
Chain of Epstein-Barr nuclear antigen 1 (P03211 whole entry): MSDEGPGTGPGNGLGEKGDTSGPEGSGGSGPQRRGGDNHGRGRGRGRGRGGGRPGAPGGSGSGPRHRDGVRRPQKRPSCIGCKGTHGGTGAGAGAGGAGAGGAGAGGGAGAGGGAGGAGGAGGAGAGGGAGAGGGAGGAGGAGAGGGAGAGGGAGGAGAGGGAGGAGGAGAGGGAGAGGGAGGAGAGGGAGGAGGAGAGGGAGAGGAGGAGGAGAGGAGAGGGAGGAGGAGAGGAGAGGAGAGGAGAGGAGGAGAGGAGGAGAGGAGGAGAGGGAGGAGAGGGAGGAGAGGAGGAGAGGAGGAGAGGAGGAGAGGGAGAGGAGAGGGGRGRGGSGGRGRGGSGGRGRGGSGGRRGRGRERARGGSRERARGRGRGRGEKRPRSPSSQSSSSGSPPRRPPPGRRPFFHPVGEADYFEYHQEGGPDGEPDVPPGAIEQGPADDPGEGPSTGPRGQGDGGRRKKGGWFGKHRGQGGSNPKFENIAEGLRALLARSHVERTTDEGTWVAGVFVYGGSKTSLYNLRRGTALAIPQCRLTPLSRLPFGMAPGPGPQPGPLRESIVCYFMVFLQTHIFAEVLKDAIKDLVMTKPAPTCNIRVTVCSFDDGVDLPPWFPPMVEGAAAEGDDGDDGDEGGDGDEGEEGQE
Chain of Aspartyl aminopeptidase (Q8I2J3 whole entry): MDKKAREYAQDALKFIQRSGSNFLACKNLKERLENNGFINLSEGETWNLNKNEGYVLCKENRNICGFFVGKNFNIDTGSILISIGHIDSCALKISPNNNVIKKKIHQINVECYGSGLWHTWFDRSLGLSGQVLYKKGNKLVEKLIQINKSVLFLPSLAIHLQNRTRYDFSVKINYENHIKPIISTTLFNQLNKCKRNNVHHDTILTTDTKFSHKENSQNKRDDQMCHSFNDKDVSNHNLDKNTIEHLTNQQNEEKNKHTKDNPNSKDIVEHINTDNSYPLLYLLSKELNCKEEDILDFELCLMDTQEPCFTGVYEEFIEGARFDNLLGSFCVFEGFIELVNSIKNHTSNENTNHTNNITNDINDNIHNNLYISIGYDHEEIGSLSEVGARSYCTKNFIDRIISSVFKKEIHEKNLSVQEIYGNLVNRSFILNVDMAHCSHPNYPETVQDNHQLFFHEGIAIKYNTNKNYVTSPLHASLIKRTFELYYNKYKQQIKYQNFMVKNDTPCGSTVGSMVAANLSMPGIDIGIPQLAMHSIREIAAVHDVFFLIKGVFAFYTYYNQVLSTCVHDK
Chain of NADPH oxidase 1 (Q9Y5S8 whole entry): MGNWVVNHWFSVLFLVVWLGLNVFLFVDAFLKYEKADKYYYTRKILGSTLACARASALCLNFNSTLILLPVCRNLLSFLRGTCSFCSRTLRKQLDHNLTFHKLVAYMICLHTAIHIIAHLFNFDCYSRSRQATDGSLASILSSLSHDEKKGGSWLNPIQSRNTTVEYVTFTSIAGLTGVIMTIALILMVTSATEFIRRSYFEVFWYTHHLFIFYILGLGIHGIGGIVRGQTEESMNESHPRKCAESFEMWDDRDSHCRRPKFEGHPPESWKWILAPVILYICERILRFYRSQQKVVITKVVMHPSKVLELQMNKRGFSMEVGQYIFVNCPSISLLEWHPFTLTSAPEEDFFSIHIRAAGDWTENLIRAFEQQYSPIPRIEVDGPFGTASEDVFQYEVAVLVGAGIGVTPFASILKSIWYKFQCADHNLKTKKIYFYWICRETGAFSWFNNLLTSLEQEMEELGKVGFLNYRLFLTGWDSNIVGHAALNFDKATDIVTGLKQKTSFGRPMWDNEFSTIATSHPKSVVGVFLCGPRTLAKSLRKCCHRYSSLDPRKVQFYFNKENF
Chain of Vasopressin V1a receptor (P37288 whole entry): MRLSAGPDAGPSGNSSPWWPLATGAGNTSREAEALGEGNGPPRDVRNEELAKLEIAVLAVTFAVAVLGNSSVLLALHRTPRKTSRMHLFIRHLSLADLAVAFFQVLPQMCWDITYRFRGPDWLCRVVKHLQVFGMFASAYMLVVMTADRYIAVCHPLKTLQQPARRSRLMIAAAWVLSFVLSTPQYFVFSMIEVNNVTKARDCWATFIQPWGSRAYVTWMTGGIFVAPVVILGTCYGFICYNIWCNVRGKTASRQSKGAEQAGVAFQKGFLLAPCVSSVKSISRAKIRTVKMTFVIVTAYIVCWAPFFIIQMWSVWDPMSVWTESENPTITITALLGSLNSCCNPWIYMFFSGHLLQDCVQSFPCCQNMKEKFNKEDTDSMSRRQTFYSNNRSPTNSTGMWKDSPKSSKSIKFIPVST
Chain of Sphingosine 1-phosphate receptor 1 (P21453 whole entry): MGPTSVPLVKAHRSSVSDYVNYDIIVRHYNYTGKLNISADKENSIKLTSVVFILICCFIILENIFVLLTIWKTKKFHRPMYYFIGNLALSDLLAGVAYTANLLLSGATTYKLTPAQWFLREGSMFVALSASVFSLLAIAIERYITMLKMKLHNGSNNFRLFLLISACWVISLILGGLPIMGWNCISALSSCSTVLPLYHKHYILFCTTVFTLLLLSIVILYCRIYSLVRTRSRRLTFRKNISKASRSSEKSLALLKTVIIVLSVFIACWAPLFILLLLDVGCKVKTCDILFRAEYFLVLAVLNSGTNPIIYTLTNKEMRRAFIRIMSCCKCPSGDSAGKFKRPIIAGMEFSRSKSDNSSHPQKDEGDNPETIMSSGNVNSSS
Chain of Protein-tyrosine kinase 2-beta (Q14289 whole entry): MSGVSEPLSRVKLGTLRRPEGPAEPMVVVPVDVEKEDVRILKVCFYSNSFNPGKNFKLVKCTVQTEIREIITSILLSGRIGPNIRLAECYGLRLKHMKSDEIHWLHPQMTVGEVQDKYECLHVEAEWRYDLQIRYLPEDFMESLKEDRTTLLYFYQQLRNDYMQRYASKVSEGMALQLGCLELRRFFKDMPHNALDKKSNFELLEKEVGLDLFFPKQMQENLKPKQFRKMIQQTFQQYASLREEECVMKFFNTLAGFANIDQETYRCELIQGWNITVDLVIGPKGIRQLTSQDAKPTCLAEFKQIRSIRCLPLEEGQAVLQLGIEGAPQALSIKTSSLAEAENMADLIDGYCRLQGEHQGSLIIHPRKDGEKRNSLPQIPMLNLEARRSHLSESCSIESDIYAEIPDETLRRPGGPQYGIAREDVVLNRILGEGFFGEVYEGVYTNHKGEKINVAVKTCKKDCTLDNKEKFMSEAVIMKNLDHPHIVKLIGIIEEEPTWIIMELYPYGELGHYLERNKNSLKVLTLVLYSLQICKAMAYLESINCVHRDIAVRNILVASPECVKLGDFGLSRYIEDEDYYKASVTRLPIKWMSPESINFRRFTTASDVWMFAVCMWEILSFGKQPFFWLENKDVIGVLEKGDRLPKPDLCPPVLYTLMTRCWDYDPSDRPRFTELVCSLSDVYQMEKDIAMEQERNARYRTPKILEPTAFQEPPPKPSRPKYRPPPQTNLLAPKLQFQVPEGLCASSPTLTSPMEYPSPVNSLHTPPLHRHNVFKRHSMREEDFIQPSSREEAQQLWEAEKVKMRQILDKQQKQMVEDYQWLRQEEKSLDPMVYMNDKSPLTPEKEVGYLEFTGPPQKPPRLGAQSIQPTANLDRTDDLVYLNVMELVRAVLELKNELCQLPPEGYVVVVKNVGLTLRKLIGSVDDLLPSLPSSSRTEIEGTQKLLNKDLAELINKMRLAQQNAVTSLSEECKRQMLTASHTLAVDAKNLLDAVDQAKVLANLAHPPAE
Chain of Lytic switch protein BZLF1 (P03206 whole entry): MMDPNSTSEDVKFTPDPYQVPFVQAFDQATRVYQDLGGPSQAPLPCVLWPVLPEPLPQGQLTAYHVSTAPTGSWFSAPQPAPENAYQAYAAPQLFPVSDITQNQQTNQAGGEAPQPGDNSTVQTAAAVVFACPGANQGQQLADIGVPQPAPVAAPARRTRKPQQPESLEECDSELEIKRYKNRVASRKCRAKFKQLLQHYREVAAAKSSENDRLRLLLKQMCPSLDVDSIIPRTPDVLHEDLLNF

Consider `O=c1cc(-c2ccco2)oc2c1ccc1ccccc12`, for which, in assay [1], the IC50 was > 69.5 µM (not active). Further, the concentration giving a half-maximal response (EC50) (as a rule, the midpoint of the concentration-response curve) in assay [2] is 12.4 µM (active).

`CCCS(=O)(=O)c1nnnn1-c1cccc(OC)c1`: the EC50 is 6.66 µM (active) in assay [3]; 5.1 µM (inconclusive) in assay [4]; 6.25 µM (active) in assay [6]; 7.57 µM (active) in assay [7]; 6.57 µM (active) in [12]; 2.49 µM (active) in assay [14]. In addition, the values for the CC50 in [5] and in assay [9] were 11.7 µM (active) and 17.8 µM (active), respectively. Besides, the IC50 was 4.51 µM (not active) in assay [8], 5.35 µM (active) in assay [10], 0.951 µM (active) in assay [11] and 20.1 µM (not active) in assay [13].

In the case of `CN1CCN(c2ccc(-c3cccc(NC(=O)COc4ccc(Cl)cc4Cl)c3)nn2)CC1`, the IC50 in [15] was > 111 µM (not active); in assay [16], > 148 µM (not active).

Regarding `CCn1c2ccccc2c2cc(NC(=O)CSc3nccc(O)n3)ccc21`, the IC50 in assay [17] is 15.3 µM (active); in assay [18], > 59.6 µM (not active); in assay [19], 42.4 µM (active); in [20] it was 1.41 µM (active); in assay [21] it was > 73.5 µM (not active).

Regarding `CCSC1=N/C(=C\C=C2/Oc3ccccc3N2CC)C(=O)S1`, the EC50 is > 29.9 µM (not active) in [22], > 29.9 µM (not active) in assay [23] and 4.53 µM (active) in [24].

Turning to `Cc1nn(-c2ccccc2)c(S)c1/C=N/c1cccc([N+](=O)[O-])c1`, the IC50 in assay [25] was 19.1 µM (active). Besides, the EC50 in assay [26] is on record as > 195 µM (not active).

Regarding `C(=N\Nc1ccccc1)/c1ccccc1`, the IC50 in assay [27] was 13 µM (active).
